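1) Cells in 96-well plates. 2) Compound, 48 h, 5 concentrations. 3) Linear interpolation between surrounding doses. 4) Unreached endpoint = highest concentration. GI50: concentration for 50% inhibition of growth.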 The source made the active and inactive calls. Rule as the data show it: active = GI50 up to about 1.1 µM and inactive = higher.
Columns and labels:
Assay in all cases: inhibition of tumour cell growth, NCI panel, 48 h
[1] = test system: HOP-92
[2] = test system: SN12C
[3] = test system: OVCAR-4
[4] = test system: A549
[5] = test system: A498
[6] = test system: MCF7
[7] = test system: MDA-N
[8] = test system: MDA-MB-435
[9] = test system: OVCAR-3
[10] = test system: U-251
[11] = test system: DU-145
[12] = test system: HCT-116
[13] = test system: SNB-75
[14] = test system: OVCAR-5
[15] = test system: SNB-19
[16] = test system: Hs-578T
[17] = test system: SK-MEL-28
[18] = test system: SK-MEL-2
[19] = test system: UACC-257
[20] = test system: T47D

| Compound | GI50 [1] | GI50 [2] | GI50 [3] | GI50 [4] | GI50 [5] | GI50 [6] | GI50 [7] | GI50 [8] | GI50 [9] | GI50 [10] | GI50 [11] | GI50 [12] | GI50 [13] | GI50 [14] | GI50 [15] | GI50 [16] | GI50 [17] | GI50 [18] | GI50 [19] | GI50 [20] |
| --- | --- | --- | --- | --- | --- | --- | --- | --- | --- | --- | --- | --- | --- | --- | --- | --- | --- | --- | --- | --- |
| CCC(C)C(Nc1c2ccccc2nc2c(C(=O)NCCN(C)C)cccc12)C(=O)O (configuration not stated) | 11.8 µM (inactive) | 13.6 µM (inactive) | 5.83 µM (inactive) | 12.3 µM (inactive) | 16.9 µM (inactive) | 5.86 µM (inactive) | 17.2 µM (inactive) | 18.1 µM (inactive) | 23.6 µM (inactive) | 25.2 µM (inactive) | 38.1 µM (inactive) | 4.28 µM (inactive) | 18 µM (inactive) | 21.3 µM (inactive) | 8.28 µM (inactive) | 18.4 µM (inactive) | 23.6 µM (inactive) | 19.4 µM (inactive) | – | – |
| O=C(NNC(=S)NC1CCCCC1)c1csc(NC(=S)NC2CCCCC2)n1 | – | 5.6 µM (inactive) | – | 7.89 µM (inactive) | 21.5 µM (inactive) | 7.55 µM (inactive) | – | 10.8 µM (inactive) | 4.04 µM (inactive) | 5.73 µM (inactive) | 14.9 µM (inactive) | 4.27 µM (inactive) | > 10 µM (inactive) | 12.8 µM (inactive) | 12 µM (inactive) | – | – | 15.5 µM (inactive) | 3.24 µM (inactive) | 13.1 µM (inactive) |
| S=C1SC(c2ccc(Cl)cc2)(c2ccc(Cl)cc2)c2ccccc21 | 44.4 µM (inactive) | > 100 µM (inactive) | > 100 µM (inactive) | 77.6 µM (inactive) | 81.8 µM (inactive) | 38.5 µM (inactive) | 62.2 µM (inactive) | 62.7 µM (inactive) | 72.1 µM (inactive) | > 100 µM (inactive) | 55.1 µM (inactive) | 24.7 µM (inactive) | > 100 µM (inactive) | > 100 µM (inactive) | > 100 µM (inactive) | > 100 µM (inactive) | 67.8 µM (inactive) | – | 31 µM (inactive) | – |
| N=C(N)NS(=O)(=O)c1ccc(NC(=O)c2cccc3c(Nc4ccc(S(=O)(=O)N=C(N)N)cc4)c4ccc(Cl)cc4nc23)cc1 | 32.7 µM (inactive) | 75.5 µM (inactive) | 80 µM (inactive) | 53 µM (inactive) | > 100 µM (inactive) | – | – | – | 60.5 µM (inactive) | 37.2 µM (inactive) | – | 38.7 µM (inactive) | 30.8 µM (inactive) | > 100 µM (inactive) | 48.4 µM (inactive) | – | 75 µM (inactive) | > 100 µM (inactive) | 77.6 µM (inactive) | – |
| Cc1csc2c(=O)n(COCc3ccccc3)c(=O)[nH]c12 | 40.8 µM (inactive) | > 100 µM (inactive) | > 100 µM (inactive) | > 100 µM (inactive) | > 100 µM (inactive) | 95.9 µM (inactive) | > 100 µM (inactive) | > 100 µM (inactive) | > 100 µM (inactive) | > 100 µM (inactive) | > 100 µM (inactive) | > 100 µM (inactive) | > 100 µM (inactive) | > 100 µM (inactive) | > 100 µM (inactive) | 65 µM (inactive) | > 100 µM (inactive) | – | > 100 µM (inactive) | – |
| CCOC(=O)C(=O)Nc1c(F)cc(F)cc1Br | > 100 µM (inactive) | > 100 µM (inactive) | > 100 µM (inactive) | > 100 µM (inactive) | > 100 µM (inactive) | – | – | – | > 100 µM (inactive) | > 100 µM (inactive) | – | > 100 µM (inactive) | > 100 µM (inactive) | > 100 µM (inactive) | > 100 µM (inactive) | – | > 100 µM (inactive) | > 100 µM (inactive) | > 100 µM (inactive) | – |
| O=C1/C(=C/c2ccccc2)CN(C(=O)Oc2ccc([N+](=O)[O-])cc2)C/C1=C\c1ccccc1 | > 10 µM (inactive) | 2.79 µM (inactive) | 2.56 µM (inactive) | > 10 µM (inactive) | > 10 µM (inactive) | – | – | – | 3.73 µM (inactive) | 1.77 µM (inactive) | – | 0.506 µM (active) | 4.4 µM (inactive) | > 10 µM (inactive) | 6.65 µM (inactive) | – | 3.48 µM (inactive) | 14.2 µM (inactive) | 5.18 µM (inactive) | – |
| CCC(/C=C/C1OC(=O)C=CC1C)=C\C(C)C/C=C/C(C)=C/C(C)C(=O)C(C)C(O)C(C)C/C(C)=C/C(=O)O (configuration not stated) | 4.98e-06 µM (active) | 2.72 µM (inactive) | 1.64 µM (inactive) | 0.946 µM (active) | 2.08 µM (inactive) | 1.03 µM (active) | 2.13e-06 µM (active) | 2.33e-06 µM (active) | 0.649 µM (active) | 2.26 µM (inactive) | 0.000264 µM (active) | 1.17 µM (inactive) | 1.91 µM (inactive) | 6.65 µM (inactive) | 3.09 µM (inactive) | 1.44e-05 µM (active) | 2.65 µM (inactive) | 4.31 µM (inactive) | 1.62 µM (inactive) | – |
| O=C(O)C#CCO | > 100 µM (inactive) | > 100 µM (inactive) | > 100 µM (inactive) | > 100 µM (inactive) | > 100 µM (inactive) | – | – | – | > 100 µM (inactive) | > 100 µM (inactive) | – | > 100 µM (inactive) | > 100 µM (inactive) | > 100 µM (inactive) | > 100 µM (inactive) | – | > 100 µM (inactive) | > 100 µM (inactive) | > 100 µM (inactive) | – |
| C=CCNC(=O)/C(Cc1cc(Br)c(OC)c(Br)c1O)=N\O | 4.65 µM (inactive) | – | 7.23 µM (inactive) | 6.68 µM (inactive) | 10.1 µM (inactive) | 4.17 µM (inactive) | 0.334 µM (active) | 0.515 µM (active) | 2.38 µM (inactive) | 4.53 µM (inactive) | 5.3 µM (inactive) | 3.01 µM (inactive) | – | 5.43 µM (inactive) | 4.41 µM (inactive) | 1.32 µM (inactive) | 3.53 µM (inactive) | 7.73 µM (inactive) | 6.15 µM (inactive) | – |
| CC12OC1(C)C1C(=O)OCC1C2=O (configuration not stated) | > 100 µM (inactive) | 26.7 µM (inactive) | > 100 µM (inactive) | > 100 µM (inactive) | > 100 µM (inactive) | 61.7 µM (inactive) | > 100 µM (inactive) | > 100 µM (inactive) | 38.9 µM (inactive) | > 100 µM (inactive) | > 100 µM (inactive) | 66.4 µM (inactive) | 99.3 µM (inactive) | 59.4 µM (inactive) | 61.1 µM (inactive) | 22.1 µM (inactive) | > 100 µM (inactive) | 50.5 µM (inactive) | > 100 µM (inactive) | – |
| CC(C)(C)n1c(=O)[nH]c(=O)n1C(C)(C)C | > 100 µM (inactive) | > 100 µM (inactive) | > 100 µM (inactive) | > 100 µM (inactive) | > 100 µM (inactive) | > 100 µM (inactive) | > 100 µM (inactive) | – | > 100 µM (inactive) | > 100 µM (inactive) | – | > 100 µM (inactive) | > 100 µM (inactive) | > 100 µM (inactive) | > 100 µM (inactive) | > 100 µM (inactive) | > 100 µM (inactive) | > 100 µM (inactive) | > 100 µM (inactive) | – |
